# Data reported in patent US20190211317A1, “PEPTIDES AND NANOPARTICLES FOR INTRACELLULAR DELIVERY OF GENOME-EDITING MOLECULES” (Aadigen, LLC, priority 2016, published 2019).
# Values joined by “and” are separate entries in the source; they are usually repeats but may differ in a detail not shown here. Identical values can stand only once. No end group written: not given here.
# Legend:
# [1] = CPP/CAS9 and CPP/CAS9:gRNA particle size, polydispersity, zeta potential (Zetasizer 4); format: physicochemical
# Protocol: The CPP/CAS9 and CPP/CAS9/sgRNA particles were further characterized; the mean size, polydispersity and zeta potential were measured with Zetasizer 4 apparatus (Malvern Ltd). […] The mean size and the polydispersity of the CCP/CAS9 and CCP/CAS9:gRNA complexes were determined at 25° C. for 3 min per measurement and zeta potential was measured with Zetasizer 4 apparatus (Malvern Ltd).
# [2] = test system: EGFP reporter gene in EGFP-U2OS, EGFP-HEK, EGFP-JURKAT cells; assay: EGFP reporter gene disruption from CPP delivery of CAS9:sgRNA (flow cytometry); format: cell-based, human; settings: for reduction of EGFP-positive cells: EGFP-JURKAT; for decrease in EGFP expression: CAS9:gRNA 50 nM, CPP:cargo 20:1; for reduction of EGFP-expressing cells / loss of EGFP expression: JURKAT;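 for all read-outs here: cells carrying one integrated EGFP reporter received peptide-complexed CAS9 preloaded 1:1 with EGFP sgRNA, cultured 72 h, then EGFP level read by flow cytometry, lipofectamine 2000 and RNAiMAX as positive controls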
# Protocol: Efficacy of CPP-mediated delivery was quantified using a well-established CAS9-induced gene disruption method (Fu et al, 2013, supra), by targeting a specific site in the exogenous EGFP gene reporter in three human cell lines expressing EGFP (GFP-U2OS, EGFP-HEK, EGFP-JURKAT).
# Stock solutions of amphipathic peptides were prepared at 1 mg/mL in distilled water and sonicated for 10 min. CAS9 protein was preloaded with purified EGFP sgRNA at a molar ratio of 1:1 and incubated for 10 min prior to forming complexes with the peptides. Preloaded CAS9/gRNA complexes (10 nM, 25 nM, and 50 nM) were mixed with CPPs at 5:1, 10:1 and 20:1 molar ratios of CPP to cargo and incubated for 30 min at 37° C. prior to cell transfection.
# Cell line containing a single integrated EGFP reporter gene (GFP-U2OS, EGFP-HEK and EGFP-JURKAT) were cultured in Dulbecco's Modified Eagle's Medium (DMEM), supplemented with 2 mM glutamine, 1% antibiotics (streptomycin 10,000 μg/mL, penicillin, 10,000 IU/mL) and 10% (w/v) foetal calf serum (FCS) at 37° C. in a humidified atmosphere containing 5% CO2. A total of 150,000 cells seeded in a 35 mm dish the day prior to transfection were grown to 50-60% confluence and overlaid with 200 μl of preformed complexes, incubated for 3-5 min, then 400 μl of DMEM was added. After 30 min incubation at 37° C., 1 mL of fresh DMEM containing 16% FCS was added to reach a final FCS concentration of 10%, without removing the overlay of CPP/CAS9-gRNA complexes. Cells were returned to the incubator for 72 hours.
# CAS9-induced double-strand break formation was analyzed using flow cytometry by monitoring level of EGFP expression. […] Both lipofectamine 2000 and RNAiMAX delivery methods were used as positive controls.
# [3] = test system: EGFP-U2OS, EGFP-HEK, EGFP-JURKAT cells; assay: Toxicity of CPP/CAS9/gRNA complexes (MTT assay); format: cell-based; settings: three cell lines; concentrations up to 100 nM; 24 h
# Protocol: The robust EGFP disruption observed in the three cell lines was found not to be the result of cellular toxicity. […] A total of 30,000 cells seeded in 24-well plates the day prior to transfection were incubated with increasing concentrations of CPP/CAS9/gRNA (complexed at a 10:1 or 20:1 molar ratio of CPP to preloaded CAS9/gRNA complex) ranging from 1 to 200 nM for 30 min prior to addition of medium to reach a final 10% concentration of FCS. Cytotoxic response was measured 24 hours later by colorimetric MTT assay (Sigma, Germany). For MTT assay, cell culture medium was removed and replaced with PBS containing 2.5 mg/ml MTT for 4 hours. Results correspond to the average of 3 separate experiments. […] Viability was reduced by less than 10% at 200 nM. In contrast, at […] for Lipofectamine 2000 or RNAiMAX, between 60-70% and 20-25% cell death was observed, depending on cell line. Moreover, both lipid methods appeared to be highly toxic on JURKAT cells, inducing 75% (lipofectamine 2000) or 45% (RNAiMAX) cell death.
# [4] = test system: endogenous EMX1 gene in U2OS, JURKAT and K562 cells; assay: EMX1 gene editing from CPP delivery of CAS9/gRNA (T7E1 assay); format: cell-based, human
# Protocol: RNAiMAX delivery was used as a positive control as it was previously reported to show better results than Lipofectamine 2000 (Zuris et al., 2015, supra). […] Cells were returned to the incubator for 72 hours.
# [5] = test system: endogenous EMX1 and exogenous EGFP reporter genes in GFP-U2OS, EGFP-JURKAT cells; assay: Delivery of multiple RGEN/gRNA complexes: EMX1 and EGFP editing; format: cell-based, human
# Protocol: RNAiMAX delivery was used as positive control. Cells were treated as described previously and CAS9-induced NHEJ analyzed 72 hr after transfection. […] The deletion (indel) frequency in the EMX1 gene was quantified using the T7E1 assay and loss of EGFP expression was monitored by flow cytometry. Data for on-target mutations induced by RGEN/gRNA are reported as an average of 3 separate experiments.
# [6] = test system: endogenous EMX1, AAVS and HPRT genes in U2OS and Human (H9) embryonic stem cells; assay: Delivery of multiple RGEN:gRNA complexes: EMX1, AAVS, HPRT editing in U2OS and H9 ES cells (T7E1); format: cell-based
# Protocol: (§1) RNAiMAX delivery method was used as a positive control.
# (§2) U2OS cells were treated as described previously. H9 embryonic stem cells were cultured in Dulbecco's modified Eagle's medium with 4 mM L-glutamine adjusted to contain 1.5 g/L sodium bicarbonate and 4.5 g/L glucose and supplemented with 0.1 mM 2-mercaptoethanol, 85%; and 15% ES-Cell Qualified fetal bovine serum. […] CAS9-induced double-strand break formation followed by repair through NHEJ was analyzed 72 hr after transfection by T7E1 assay and quantified using Fragment Analyzer System. The deletion (indel) frequencies in EMX1, AAVS and HPRT genes were quantified using T7E1 assay. Data for on-target mutations induced by RGEN:gRNA are reported as an average of 3 separate experiments.
# [7] = test system: endogenous EMX1, AAVS and HPRT genes in Mouse (ESF-158) embryonic stem cells; assay: Delivery of multiple RGEN:gRNA complexes: EMX1, AAVS, HPRT editing in mouse ES cells (T7E1); format: cell-based
# Protocol: as §1, §2
# [8] = test system: endogenous hPD1 gene in JURKAT and K562 cells; assay: hPD1 gene editing in T cell lines (T7E1 assay); format: cell-based, human; settings: CAS9/sgRNA 5 μg/10 μg
# Protocol: CAS9 protein was preloaded with purified sgRNA at a molar ratio of 1:1 and incubated for 10 min prior to forming complexes with peptides.
# 5×10^6 cells were washed twice with DPBS by centrifuging at 800 rpm for 5 minutes and resuspended in 100 ^l transfection buffer, and then transferred into the electroporation cuvette. An optimized program selected for both high transfection and high efficiency on T cells was used. After electroporation, cells were resuspended in 500 ^l pre-warmed AIM-V medium containing 10% FBS and incubated at 37° C. in 5% CO2. The transfection efficiency was evaluated after 48 hr by flow cytometry or T7E1 assay.
# RNAiMAX delivery method was used as positive control. Cells were either resuspended in or overlaid with 100 μl of preformed complexes, incubated for 3-5 min, and then 300 μl of DMEM was added. […] The indel frequency in the hPD1 gene was quantified using the T7E1 assay.
# [9] = test system: hPD1 gene in human T cells; assay: hPD1 gene editing in primary human T cells (T7E1 assay); format: cell-based
# Protocol: T cells were isolated from PBMCs (2 different donors) using anti-CD3/anti-CD28 antibodies bound to paramagnetic beads (Dynabeads ClinExVivo CD3/CD28, Invitrogen) at a ratio of 3:1 (beads:cells). The cells and beads were co-incubated for 2 hours at room temperature and CD3′ cell enrichment was performed using Dynal ClinExVIVO MPC magnet (Thermo Fisher). The anti-CD3/anti-CD28 paramagnetic beads were removed, washed and concentrated. Cells in the CD3′ fraction were resuspended in activation media at a concentration of 1×10^6 cells/ml with AIM-V medium (Thermo Fishers) supplemented with 10% fetal calf serum, 300 IU/ml IL2 and 50 ng/ml OKT3 (MuromonAB-CD3) for two days.
# Cells were transfected by electroporation with CD-19 plasmid or gRNA/CAS9 (5 μg/10 μg) using a Nucleofector 2b (Lonza, Germany) with the Amaxa Human T cells Nucleofector Kit, VPA-1002 (Lonza, Germany). 5×10^6 cells were washed twice with DPBS by centrifuging at 800 rpm for 5 minutes and resuspended in 100 ^l transfection buffer, and then transferred into the electroporation cuvette. An optimized program selected for both high transfection and high efficiency on T cells was used. After electroporation, cells were resuspended in 500 ^l pre-warmed AIM-V medium containing 10% FBS and incubated at 37° C. in 5% CO2. The transfection efficiency was evaluated after 48 hr by flow cytometry or T7E1 assay.
# As control, CAS9 loaded with gRNA targeting GFP was used.
# Cells were returned to the incubator for 72 hours. CAS9-induced double-strand break followed by repair through non-homologous end joining (NHEJ) was analyzed by either the T7E1 assay or using the Genome Cleavage Detection kit (GCD Thermo Fisher) and quantified using Fragment Analyzer System. The indel frequency in the target gene was quantified using the T7E1 assay. The cultures were expanded and analyzed for viability and PD1 levels every 10 days. T cell expansion medium contained AIM V medium, supplemented with 5% heat-inactivated human AB Serum, 1% Gluta-Max, and 300 IU/mL IL-2.
compound,measurement,setting,value
N=C(N)NCCC[C@H](NC(=O)[C@H](CCCNC(=N)N)NC(=O)[C@H](CCCCN)NC(=O)[C@H](CCCNC(=N)N)NC(=O)[C@@H]1CCCN1C(=O)[C@H](Cc1c[nH]c2ccccc12)NC(=O)[C@H](CCC(=O)O)NC(=O)[C@H](CCCNC(=N)N)NC(=O)[C@H](Cc1c[nH]c2ccccc12)NC(=O)[C@H](Cc1c[nH]c2ccccc12)NC(=O)[C@H](CCCNC(=N)N)NC(=O)[C@H](CCC(=O)O)NC(=O)[C@H](Cc1c[nH]c2ccccc12)NC(=O)[C@H](Cc1c[nH]c2ccccc12)NC(=O)[C@H](CCCCN)NC(=O)CCN)C(=O)O [VEPEP-3b],PI,"[1]; Cas9:gRNA, molar ratio 10/1",0.35 ± 0.1
same,Size,"[1]; Cas9:gRNA, molar ratio 10/1",38 ± 4 nm
same,zeta,"[1]; Cas9:gRNA, molar ratio 10/1",27.0 ± 4 MV
same,PI,"[1]; Cas9:gRNA, molar ratio 20/1",0.37 ± 0.1
same,Size,"[1]; Cas9:gRNA, molar ratio 20/1",51 ± 5 nm
same,zeta,"[1]; Cas9:gRNA, molar ratio 20/1",25.3 ± 7 MV
same,Pt,"[1]; Cas9, molar ratio 10/1",0.33 ± 0.1
same,zeta,"[1]; Cas9, molar ratio 10/1",21.0 ± 5 mV
same,Size,"[1]; Cas9, molar ratio 10/1, 0.9% NaCl",45 ± 5 nm
same,Pt,"[1]; Cas9, molar ratio 20/1",0.35 ± 0.1
same,Size,"[1]; Cas9, molar ratio 20/1",52 ± 5 nm
same,zeta,"[1]; Cas9, molar ratio 20/1",17.0 ± 5 mV
same,formation of stable nanoparticles,"[1]; with CAS9 and CAS9:gRNA complex, molar ratio 10:1 or 20:1",able to form stable nanoparticles
same,Mean diameter,"[1]; with CAS9 and CAS9:gRNA, molar ratio 10:1 or 20:1",about 50 nm
same,reduction of EGFP-positive cells,[2],87%
same,reduction of number of EGFP-expressing cells,"[2]; HEK, 1 nM CAS9:gRNA",71%
same,decrease in EGFP expression,[2]; HEK,93%
same,reduction of EGFP-expressing cells / loss of EGFP expression,[2]; 1 nM CAS9:gRNA,55%
same,reduction of number of EGFP-expressing cells,"[2]; U2OS, 1 nM CAS9:gRNA",68%
same,decrease in EGFP expression,[2]; U2OS,92%
same,toxicity,[3],no toxicity
same,Mean indel Frequency ± S.E.M,"[4]; JURICAT, CAS9/sgRNA 25 nM",69% and 69 ± 8%
same,Mean indel Frequency ± S.E.M,"[4]; JURKAT, CAS9/sgRNA 50 nM",71 ± 5%
same,Mean indel Frequency ± S.E.M,"[4]; K562, CAS9/sgRNA 25 nM",79% and 79 ± 5%
same,Mean indel Frequency ± S.E.M,"[4]; K562, CAS9/sgRNA 50 nM",81 ± 7%
same,Mean indel Frequency ± S.E.M,"[4]; U2OS, CAS9/sgRNA 25 nM, 20:1",75% and 75 ± 7%
same,Mean indel Frequency ± S.E.M,"[4]; U2OS, CAS9/sgRNA 50 nM",77 ± 5%
same,Mean indel Frequency ± S.E.M,"[5]; JURKAT, EGFP",84 ± 7%
same,Mean indel Frequency ± S.E.M,"[5]; JURKAT, EMX1",79 ± 7%
same,Mean indel Frequency ± S.E.M,"[5]; U2OS, EGFP, 25 nM each complex",80 ± 5%
same,Mean indel Frequency ± S.E.M,"[5]; U2OS, EMX1",82 ± 6%
same,Mean indel Frequency ± S.E.M,"[6]; H9, AAVS",71 ± 7%
same,Mean indel Frequency ± S.E.M,"[6]; H9, EMX1",67 ± 6%
same,Mean indel Frequency ± S.E.M,"[6]; H9, HPRT",70 ± 4%
same,Mean indel Frequency ± S.E.M,"[6]; U2OS, AAVS",75 ± 7%
same,Mean indel Frequency ± S.E.M,"[6]; U2OS, EMX1, 20 nM each complex",82 ± 5%
same,Mean indel Frequency ± S.E.M,"[6]; U2OS, HPRT",84 ± 6%
same,Mean indel Frequency ± S.E.M,[7]; AAVS,79 ± 5%
same,Mean indel Frequency ± S.E.M,[7]; EMX1,84 ± 6%
same,Mean indel Frequency ± S.E.M,[7]; HPRT,85 ± 7%
"GLWRALWRLLRSLWRLLWKV [CADY, reference compound]",complex formation with CAS9,[1],did not form any complex
same,PI,"[1]; Cas9:gRNA, molar ratio 20/1",0.6 and 0.6 ± 0.2
same,Size,"[1]; Cas9:gRNA, molar ratio 20/1",350±20 nm
same,zeta,"[1]; Cas9:gRNA, molar ratio 20/1",45 ± 8 MV
same,formation of stable particles with preloaded CAS9:gRNA complex,[1]; molar ratio 10:1,neither CADY nor VEPEP-9 formed stable particles
same,reduction of EGFP-positive cells,[2],18%
same,decrease in EGFP expression,[2]; HEK,42%
same,reduction of EGFP-expressing cells / loss of EGFP expression,[2]; 1 nM CAS9:gRNA,no change in EGFP expression
same,decrease in EGFP expression,[2]; U2OS,33%
same,loss of EGFP expression,"[2]; both cell lines (U2OS, HEK), 1 nM CAS9:gRNA",no change in EGFP expression
same,Mean indel Frequency ± s.e.m,[8]; JURKAT,12 ± 9%
same,Mean indel Frequency ± s.e.m,[8]; K562,15 ± 9%
same,Mean indel Frequency ± s.e.m,"[9]; Donor 1, CAS9/sgRNA 2.5 μg/5 μg",0%
same,Mean indel Frequency ± s.e.m,"[9]; Donor 1, CAS9/sgRNA 5 μg/10 μg",0%
same,Mean indel Frequency ± s.e.m,"[9]; Donor 2, CAS9/sgRNA 2.5 μg/5 μg",0%
same,Mean indel Frequency ± s.e.m,"[9]; Donor 2, CAS9/sgRNA 5 μg/10 μg",0%
same,mean indel frequency of hPD1 gene,"[9]; T cells from the two donors, 5 μg/10 μg CAS9/gRNA",No editing
